Patent US7544814B2, “[3.2.0] Heterocyclic compounds and methods of using the same” (Nereus Pharmaceuticals, Inc., priority 2004, dated 2009)
“And” between values parts separate entries of the source, which are not always exact repeats. Equal entries are not always repeated. Where two headings read alike, the source gives them in different places.

Columns and labels:
[1] = system: PC-3; assay: Cell growth inhibition (resazurin), PC-3; type: cell-based, human; conditions: from EC50 values
[2] = system: MES-SA; assay: Cell growth inhibition (resazurin), MES-SA; type: cell-based, human; conditions: for cytotoxic activity against MES-SA, in words: from EC50 values
[3] = system: MES-SA/Dx5; assay: Cell growth inhibition (resazurin), multidrug resistant MES-SA/Dx5; type: cell-based, human; conditions: from EC50 values
[4] = system: HL-60; assay: Cell growth inhibition (resazurin), HL-60; type: cell-based, human; conditions: for EC50: Table 4, 48 hours drug exposure; for cytotoxic activity against HL-60, in words: from EC50 values
[5] = system: HL-60/MX2; assay: Cell growth inhibition (resazurin), multidrug resistant HL-60/MX2; conditions: from EC50 values
Experimental: Concentrations ranging from 6.32 μM to 2 nM were tested for II-2 and II-4.
HL-60/MX2 is a multidrug resistant tumor cell line derived from the human promyelocytic leukemia cell line, HL-60 and expresses reduced topoisomerase II activity. […] Mitoxantrone, the topoisomerase II targeting agent was included as a control.

[6] = system: NF-κB; assay: NF-κB-mediated luciferase reporter gene assay, HEK293 NF-κB/Luc cells, TNF-α stimulation; type: cell-based, human; conditions: for EC50: 1 hr pretreatment, TNF-α 6 hr; for effect on luciferase activity upon TNF-α stimulation, in words: pretreatment of NF-κB/Luc 293 cells
Experimental: The HEK293 NF-κB/luciferase reporter cell line is a derivative of the human embryonic kidney cell line (ATCC; CRL-1573) and carries a luciferase reporter gene under the regulation of 5× NF-κB binding sites. […] When performing the luciferase assay, the DMEM basal medium was replaced with phenol-red free DMEM basal medium and the G418 was omitted.
For NF-κB-mediated luciferase assays, HEK293 NF-κB/luciferase cells were seeded at 1.5×10^4 cells/well in 90 μl phenol-red free DMEM complete medium into Corning 3917 white opaque-bottom tissue culture plates. For Formula II-2, Formula II-4, Formula II-5A, and Formula II-18, a 400 μM starting dilution was made in 100% DMSO and this dilution was used to generate a 8-point half log dilution series. […] For Formula II-20, a 2.5 mM or 8 mM starting solution was made in 100% DMSO and the final test concentrations ranged from 6.3 μM to 2.0 nM or 20 μM to 6.3 nM, respectively. The plates were returned to the incubator for 1 hour. After 1 hr pretreatment, 10 μl of a 50 ng/ml TNF-α solution, prepared in the phenol-red free DMEM medium was added, and the plates were incubated for an additional 6 hr.
At the end of the TNF-α stimulation, 100 μl of Steady Lite HTS luciferase reagent (Packard Bioscience) was added to each well and the plates were left undisturbed for 10 min at room temperature before measuring the luciferase activity. The relative luciferase units (RLU) were measured by using a Fusion microplate fluorometer (Packard Bioscience).

[7] = system: U266
[8] = system: B16-F10
[9] = system: U266; assay: Cell growth inhibition (resazurin), U266; conditions: for EC50: 48 hours drug exposure
[10] = system: HT-29; assay: Cell growth inhibition (resazurin), HT-29; conditions: for cytotoxicity against HT-29, in words: from EC50 values
[11] = system: OVCAR-3; assay: Cell growth inhibition (resazurin), OVCAR-3
[12] = system: B16-F10; assay: Cell growth inhibition (resazurin), B16-F10; conditions: 48 hours drug exposure, mean ± SD where n≥3
[13] = system: NCI-H292; assay: Cell growth inhibition (resazurin), NCI-H292; conditions: from EC50 values
[14] = system: RPMI 8226; assay: Cell growth inhibition (resazurin), RPMI 8226; conditions: for EC50: 48 hours drug exposure; for cytotoxicity against RPMI 8226, in words: from EC50 values
[15] = system: MDA-MB-231; assay: Cell growth inhibition (resazurin), MDA-MB-231; conditions: for EC50: Homo sapiens, MDA-MB-231, 48 h, read-out: EC50 against MDA-MB-231; for cytotoxicity against MDA-MB-231, in words: from EC50 values
[16] = target: T1, caspase-like activity of purified rabbit muscle 20S proteasome (Oryctolagus cuniculus, UniProt A0A5F9DQW2); assay: In vitro inhibition of 20S proteasome caspase-like activity (Z-LLE-AMC)
T1 sequence (A0A5F9DQW2 1-212): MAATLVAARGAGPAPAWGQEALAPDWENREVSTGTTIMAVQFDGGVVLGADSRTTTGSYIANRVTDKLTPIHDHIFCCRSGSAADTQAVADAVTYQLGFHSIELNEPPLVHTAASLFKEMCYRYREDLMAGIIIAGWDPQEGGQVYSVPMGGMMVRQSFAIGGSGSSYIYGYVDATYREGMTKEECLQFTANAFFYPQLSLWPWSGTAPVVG

[17] = target: T2, trypsin-like activity of purified rabbit muscle 20S proteasome (Oryctolagus cuniculus, UniProt G1SWK8); assay: In vitro inhibition of 20S proteasome trypsin-like activity (Boc-LRR-AMC)
T2 sequence (G1SWK8 1-271): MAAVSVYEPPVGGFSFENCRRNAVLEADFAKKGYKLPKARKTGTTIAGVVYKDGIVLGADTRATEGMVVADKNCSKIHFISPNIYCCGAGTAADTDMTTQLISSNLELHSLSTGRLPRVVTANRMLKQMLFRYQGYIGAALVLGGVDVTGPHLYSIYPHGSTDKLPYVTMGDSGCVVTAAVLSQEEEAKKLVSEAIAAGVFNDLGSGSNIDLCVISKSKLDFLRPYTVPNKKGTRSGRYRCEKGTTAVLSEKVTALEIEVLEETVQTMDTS

[18] = target: T3, chymotrypsin-like activity of purified rabbit muscle 20S proteasome (Oryctolagus cuniculus, UniProt G1T4Q9); assay: In vitro inhibition of 20S proteasome chymotrypsin-like activity (suc-LLVY-AMC)
T3 sequence (G1T4Q9 1-263): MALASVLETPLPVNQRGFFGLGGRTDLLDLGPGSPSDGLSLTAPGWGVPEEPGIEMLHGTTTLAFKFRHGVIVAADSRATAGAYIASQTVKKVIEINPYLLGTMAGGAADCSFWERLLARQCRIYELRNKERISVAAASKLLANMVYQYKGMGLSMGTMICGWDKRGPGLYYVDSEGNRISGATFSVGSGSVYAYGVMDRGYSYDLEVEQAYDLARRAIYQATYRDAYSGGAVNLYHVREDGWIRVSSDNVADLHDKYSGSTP

[19] = target: T2, trypsin-like activity of purified rabbit muscle 20S proteasome; assay: biochemical
[20] = Homo sapiens, RPMI-8226, 48 h, read-out: RPMI 8226 EC50, Table 2, mean ± SD where n≥3
[21] = read-out: RPMI 8226 EC50, Table 2, mean ± SD where n≥3
[22] = EC50 values, chymotrypsin-like activity

In the case of C[C@@]12OC(=O)[C@]1([C@@H](O)C1CCCCC1)NC(=O)[C@@H]2CCCl [Formula II-2], the “cytotoxicity against PC-3, in words” value [1] is reported as “cytotoxic”, the “cytotoxic activity against MES-SA, in words” value [2] is reported as “cytotoxic activity” and the “cytotoxic activity against MES-SA/Dx5, in words” value [3] is reported as “cytotoxic activity”. For the same molecule, the EC50 ([4]; Homo sapiens, HL-60, 48 h) was 237 nM, the EC50 [4] was 176 nM and the “cytotoxic activity against HL-60, in words” value [4] was “retained cytotoxic activity”. For the same molecule, the “cytotoxic activity against HL-60/MX2, in words” value [5] was “retained cytotoxic activity”, the EC50 ([6]; Homo sapiens, HEK293, read-out: EC50, NF-κB-mediated luciferase reporter gene assay, Table 5, values in nM) was 71 ± 20 nM and the “effect on luciferase activity upon TNF-α stimulation, in words” value [6] was “dose-dependent decrease”. The “cytotoxicity against U266, in words” value [7] was “cytotoxic”, the “cytotoxicity against B16-F10, in words” value [8] was “cytotoxic” and the EC50 ([9]; Homo sapiens, U-266, 48 h, read-out: U266 EC50, Table 2) was 39 nM. The EC50 ([9]; read-out: U266 EC50, Table 2) was 32 nM, the EC50 ([10]; Homo sapiens, HT-29, 48 h, read-out: EC50 against HT-29) was 129 ± 21 nM and the “cytotoxicity against HT-29, in words” value [10] was “cytotoxic”. The “cytotoxicity against OVCAR-3, in words” value ([11]; from EC50 values) was “cytotoxic”, the EC50 ([12]; Mus musculus, B16-F10, 48 h, read-out: EC50 against B16-F10, Table 1) was 194 nM and the EC50 ([12]; read-out: EC50 against B16-F10, Table 1) was 180 nM. The “cytotoxicity against NCI-H292, in words” value [13] was “cytotoxic”, the EC50 ([14]; Homo sapiens, RPMI-8226, 48 h, read-out: EC50 against RPMI 8226, Table 1) was 49 nM and the EC50 [14, 20] was 49 nM. The “cytotoxicity against RPMI 8226, in words” value [14] was “cytotoxic”, the EC50 [14, 21] was 45 nM and the EC50 [15] was 121 ± 23 nM. The “cytotoxicity against MDA-MB-231, in words” value [15] was “cytotoxic”, the EC50 ([16]; EC50 Caspase-like, Table 6, values in μM) was 1.3 µM and 1.7 µM and the EC50 ([16]; EC50 values, caspase-like activity, range in mixed units, summary of Table 6, range from nM to μM) was 0.956 to 8.7 µM. For the same molecule, the “inhibition of the trypsin-like activity of the 20S proteasome, in words” value ([17]; under the conditions tested) was “able to inhibit”, the EC50 [18, 22] was 13 to 88 nM and the EC50 ([18]; read-out: EC50 Chymotrypsin-like) was 19 nM.

C[C@@]12OC(=O)[C@]1([C@@H](O)C1CCCCC1)NC(=O)[C@@H]2CCBr [Formula II-4] was tested, and the “cytotoxicity against PC-3, in words” value [1] was “cytotoxic”, the EC50 ([2]; Homo sapiens, MES-SA, 48 h, Table 3, 48 hours drug exposure) was 140 nM and the “cytotoxic activity against MES-SA, in words” value [2] was “cytotoxic activity”. The EC50 ([4]; Homo sapiens, HL-60, 48 h) was 143 nM, the “cytotoxic activity against HL-60, in words” value [4] was “retained cytotoxic activity” and the “cytotoxic activity against HL-60/MX2, in words” value [5] was “retained cytotoxic activity”. For the same molecule, the EC50 ([6]; Homo sapiens, HEK293, Table 5, values printed in nM, read-out: EC50, NF-κB-mediated luciferase reporter gene assay) was 67 nM, the “effect on luciferase activity upon TNF-α stimulation, in words” value [6] was “dose-dependent decrease” and the EC50 ([6]; read-out: EC50, NF-κB-mediated luciferase reporter gene assay, Table 5, values in nM) was 88 nM. For the same molecule, the “cytotoxicity against B16-F10, in words” value [8] was “cytotoxic”, the EC50 [19] was 107 nM and the “cytotoxicity against U266, in words” value ([9]; from EC50 values) was “cytotoxic”. For the same molecule, the EC50 ([9]; read-out: U266 EC50, Table 2) was 34 nM, the “cytotoxicity against HT-29, in words” value [10] was “cytotoxic” and the EC50 ([11]; Homo sapiens, OVCAR-3, 48 h, read-out: EC50 against OVCAR-3) was over 6320 nM. For the same molecule, the “cytotoxicity against NCI-H292, in words” value [13] was “cytotoxic”, the EC50 [14, 20] was 57 nM and the “cytotoxicity against RPMI 8226, in words” value [14] was “cytotoxic”. The EC50 [14, 21] was 51 nM, the EC50 [15] was 114 ± 4 nM and the “cytotoxicity against MDA-MB-231, in words” value [15] was “cytotoxic”. The EC50 ([16]; EC50 Caspase-like, Table 6, values in nM) was 0.85 µM and 0.637 µM, the EC50 ([16]; EC50 values, caspase-like activity, summary of Table 6) was 0.213 to 0.85 µM and the “inhibition of the trypsin-like activity of the 20S proteasome, in words” value [17] was “able to inhibit”. The EC50 ([17]; read-out: EC50 Trypsin-like) was 110 nM, the EC50 ([18]; EC50 Chymotrypsin-like, Table 6, values in nM) was 13 nM and the EC50 [18, 22] was 13 to 88 nM.
